Experiments:
anesthetized rats = assay: Mean arterial pressure (MAP) and heart rate (HR) in anesthetized rats; format: in vivo, rat (Sprague-Dawley); settings: nebivolol 3 mg/kg i.v.; L-NAME 3 mg/kg, ODQ 1 mg/kg, propranolol 1 mg/kg, sildenafil 0.3 mg/kg i.v.
Method: To determine blood pressure and heart rate, Sprague-Dawley rats (250-400 g) were anesthetized with ketolar and diazepam. The right carotid artery was catheterized for constant blood pressure and heart rate measurement by means of a pressure transducer connected to a PowerLab data acquisition system (ADInstruments). The left external jugular vein was catheterized for saline or drug infusion. 3 mg/kg nebivolol (n=6) or vehicle (50% glycofurol; n=4) was administered intravenously in anesthetized rats and MAP and HR were measured. […] The effect of nebivolol in combination with the type 5 phosphodiesterase (PDE-5) inhibitor sildenafil on hypotension and heart rate was studied in rats using the methods described above.

[1] = test system: nitrite plus nitrate (NOx) in rat serum; assay: Serum nitrite plus nitrate (NOx) by Griess colorimetric method; format: in vivo; settings: nebivolol 3 mg/kg i.v.; L-NAME 3 mg/kg, ODQ 1 mg/kg, propranolol 1 mg/kg, sildenafil 0.3 mg/kg
Method: Total NO derivatives (nitrites plus nitrates) were measured in pre-filtered (10,000 MW pore size) serum samples from the studied rats by the Griess colorimetric method, using a commercial kit for nitrite and nitrate determination from Cayman Chemical Co. (Ann Arbor, Mich.). Serum concentrations of NOx were determined 10 minutes after nebivolol administration.

cGMP in rat plasma = assay: Plasma cGMP content by ELISA; format: in vivo, rat (Sprague-Dawley); settings: nebivolol 3 mg/kg i.v.; L-NAME 3 mg/kg, ODQ 1 mg/kg, propranolol 1 mg/kg
Method: To determine the plasma cGMP content, Sprague-Dawley rats were anesthetized with urethane (1.25 g/kg). The right carotid artery was catheterized for constant blood pressure and heart rate measurement by means of a pressure transducer connected to a PowerLab data acquisition system (ADInstruments). The left external jugular vein was catheterized for saline or drug infusion. After administering the respective treatments, rat plasma samples were collected, immediately frozen and stored at −80° C. until extraction for cyclic nucleotide assay. cGMP was determined by ELISA using a kit from Cayman Chemical Co. Plasmatic cGMP levels were determined 10 minutes after nebivolol administration.

[2] = test system: human corpus cavernosum (HCC) strips; assay: Relaxation of human corpus cavernosum strips contracted with U46619; format: cell-based; settings: metoprolol 1 μM, atenolol 1 μM, nebivolol 0.3 μM
Method: Specimens of human corpus cavernosum were obtained from organ donors and from impotent men at the time of penile prosthesis implantation. Tissues were placed in ice-cold M-400 solution (pH 7.4; 400 mOsm/kg, composition in w/v: 4.19% manitol, 0.2% KH2PO4, 0.97% K2HPO4.3H2O, 0.11% KCl and 0.08% NaHCO3) at the time of removal and transported to the laboratory for utilization within 16 h. Strips of human corpus cavemosum were mounted on force transducers in 8 ml organ baths (37° C.) containing physiological salt solution (PSS) continuously bubbled with 95% O2/5% CO2 mixture to maintain a pH of 7.4. Strips were contracted with the thromboxane receptor agonist U46619 (1-3 nM) and relaxation responses were evaluated by cumulative additions of compounds to the chambers.

[3] = test system: human penile resistance arteries (HPRA); assay: Relaxation of human penile resistance arteries contracted with U46619 (myograph); format: cell-based; set-up: effect on endothelium-dependent relaxation of HPRA caused by acetylcholine / effect on sildenafil-mediated relaxation of HPRA: unit of the concentration uncertain; settings: metoprolol (1 (unit uncertain)), atenolol (1 (unit uncertain)), nebivolol (0.3 (unit uncertain))
Method: Specimens of human corpus cavernosum were obtained from organ donors and from impotent men at the time of penile prosthesis implantation. Tissues were placed in ice-cold M-400 solution (pH 7.4; 400 mOsm/kg, composition in w/v: 4.19% manitol, 0.2% KH2PO4, 0.97% K2HPO4.3H2O, 0.11% KCl and 0.08% NaHCO3) at the time of removal and transported to the laboratory for utilization within 16 h.
To determine the resistance of penile small arteries, helicine arteries (lumen diameter 150-400 μm) which are the terminal branches of deep penile arteries, were dissected by carefully removing the adhering trabecular tissue, and arterial ring segments (2 mm long) were subsequently mounted on two 40 μm wires on microvascular double Halpern-Mulvany myographs (J.P. Trading, Aarhus, Denmark) for isometric tension recordings. The chambers were filled with PSS continuously bubbled with 95% O2/5% CO2 mixture to maintain a pH of 7.4. […]

| SMILES | effect on heart rate reduction caused by nebivolol (anesthetized rats) | effect on hypotension caused by nebivolol (anesthetized rats) | effect on nebivolol-induced increment in serum NOx [1] | effect on nebivolol-induced increase in plasma cGMP (cGMP in rat plasma) | effect on acetylcholine-induced endothelium-dependent relaxation of HCC strips [2] | effect on endothelium-dependent relaxation of HPRA caused by acetylcholine [3] |
| --- | --- | --- | --- | --- | --- | --- |
| COC(=O)[C@@H](N)CCCNC(=N)N[N+](=O)[O-] [L-NAME, Nω-nitro-L-arginine methyl ester] | did not affect | significantly reduced | prevents this effect | slightly reduced | – | – |
| O=c1onc2cnc3ccccc3n12 [ODQ, 1-H-(1,2,4)oxadiazolo(4,3-alpha)quinoxaline-1-one] | did not significantly modify | did not significantly modify | prevents this effect | slightly reduced | – | – |
| COCCc1ccc(OCC(O)CNC(C)C)cc1 (stereo not shown) [metoprolol] | – | – | – | – | not significantly modified | not affected |
| CC(C)NCC(O)COc1cccc2ccccc12 (stereo not shown) [propranolol] | significantly reduced the impact | without affecting | – | not influenced | – | – |
